Measured values published in patent US20170238571A1, “A SYNERGISTIC COMPOSITION COMPRISING A MIXTURE OF BACTERIA OF THE GENERA LACTOBACILLUS AND PROPIONOBACTERIUM PARTICULARLY USEFUL TO REDUCE OR ELIMINATE PATHOGEN CONTAMINATION IN SOYBEN MEAL AND ITS DERIVATIVES; METHODS AND USES THEREOF” (Molinos Río de la Plata S.A., priority 2014, published 2017).

Experiments:
Type in all cases: cell-based
[1] = tested on: Salmonella (S. typhimurium, S. enteritidis, S. heidelberg); test: Effectiveness of mixes against Salmonella in soybean meal with 8% DBM; settings: 25° C. - 8% DBM; for Average (n = 3): Salmonella count; for LOG10 (CFU/g): Salmonella
Experimental: (§1) In order to assess the effectiveness of the mix of the invention in the matrix of interest, an appropriate working protocol was prepared. Initially, 500 g of soybean meal were infected with 50 mL of Salmonella solution whose composition was: 10^6 CFUS. typhimurium/mL, 10^6 CFUS. enteritidis /mLand 10^6 CFUS. heidelberg /mL in equal amounts. […] 50 g of the wet meal obtained (≈25% moisture content on dry basis) were mixed within the dry meal (≈10% moisture content dry basis) and were stirred for 10 minutes. […] Daily determinations of Salmonella colony forming units were performed on this contaminated meal. To this end, 40.5 g of BPW to 4.5 g of the resulting meal were added and vigorously stirred, and then 100μL of this solution, were plated onto Salmonella-Shigella agar (SS Agar). When microorganisms were used in the protecting mixes, concentrations were carefully balanced, and the amount of bacteria added was always the same.
(§2) In the cases in which solutions with ferments were used for protection purposes, cell concentration was of about 10^8 CFU/mL.
After oil is stripped from the soybean flakes during the extraction process, the latter goes through a desolventizer to evaporate the residual hexane remaining after extraction. This process adds moisture to the flakes, since desolventizing is a process that uses steam. Once the soybean flake is desolventized, it is dried to obtain the desired moisture level. The moisture content assessed on a dry basis of a typical meal product is around 11-12% DBM; however, at present we can find meals on the market with a moisture content ranging from 8-13% DBM. The effectiveness of the mix of the invention was tested in meals with different moisture contents.

[2] = tested on: Salmonella (S. typhimurium, S. enteritidis, S. heidelberg); test: Effectiveness of mixes against Salmonella in soybean meal at different temperatures; settings: for Average (n = 3): Salmonella count; for LOG10 (CFU/g): Salmonella
Experimental: as §1, §2
The following tests were carried out to assess the effectiveness of different mixes under different conditions. To assess extreme temperatures, meal products were stored at 5, 25, and 32° C., after contamination and protection, respectively. Samples were taken every 24 hours and triplicate determinations of Salmonella, lactic and propionic bacteria were made.

[3] = tested on: Aspergillus niger ATCC 16404; test: Protection against fungi: A. niger in premixed soybean meal; settings: 25° C. - 12% DBM; for Average (n = 3): A. niger count; for LOG10 (CFU/g): A. niger
Experimental: For the determination of fungal CFU, 20 grams of soybean meal were added to 180 mL of sterile tap water with Tween 80, which was vigorously stirred. Serial dilutions of the sample were carried out in order to perform recounting on the appropriate plates, in a Czapek-Dox agar medium.

CCC(=O)O [Propionic Acid]
Average (n = 3) ([1]; 0 hours): 199.67 | Average (n = 3) ([1]; 12 hours): 175 | Average (n = 3) ([1]; 24 hours): 130 | Average (n = 3) ([1]; 36 hours): 100.33 | Average (n = 3) ([1]; 48 hours): 90.67 | Average (n = 3) ([1]; 60 hours): 77 | Average (n = 3) ([1]; 72 hours): 58 | Average (n = 3) ([1]; 84 hours): 32.33 | Average (n = 3) ([1]; 96 hours): 15 | LOG10 (CFU/g) ([1]; 0 hours): 3.65 LOG10 (CFU/g) | LOG10 (CFU/g) ([1]; 12 hours): 3.59 LOG10 (CFU/g) | LOG10 (CFU/g) ([1]; 24 hours): 3.46 LOG10 (CFU/g) | LOG10 (CFU/g) ([1]; 36 hours): 3.35 LOG10 (CFU/g) | LOG10 (CFU/g) ([1]; 48 hours): 3.30 LOG10 (CFU/g) | LOG10 (CFU/g) ([1]; 60 hours): 3.23 LOG10 (CFU/g) | LOG10 (CFU/g) ([1]; 72 hours): 3.11 LOG10 (CFU/g) | LOG10 (CFU/g) ([1]; 84 hours): 2.85 LOG10 (CFU/g) | LOG10 (CFU/g) ([1]; 96 hours): 2.52 LOG10 (CFU/g) | Average (n = 3) ([2]; 5° C. - 12% DBM, 0 days): 199.76 | Average (n = 3) ([2]; 5° C. - 12% DBM, 1 day): 165 | Average (n = 3) ([2]; 5° C. - 12% DBM, 2 days): 131.3 | Average (n = 3) ([2]; 5° C. - 12% DBM, 3 days): 90.67 | Average (n = 3) ([2]; 5° C. - 12% DBM, 4 days): 61 | Average (n = 3) ([2]; 5° C. - 12% DBM, 5 days): 57 | Average (n = 3) ([2]; 5° C. - 12% DBM, 6 days): 38 | Average (n = 3) ([2]; 25° C. - 12% DBM, 0 days): 199.67 | Average (n = 3) ([2]; 25° C. - 12% DBM, 1 day): 145.33 | Average (n = 3) ([2]; 25° C. - 12% DBM, 2 days): 110 | Average (n = 3) ([2]; 25° C. - 12% DBM, 3 days): 90 | Average (n = 3) ([2]; 25° C. - 12% DBM, 4 days): 60.67 | Average (n = 3) ([2]; 25° C. - 12% DBM, 5 days): 57 | Average (n = 3) ([2]; 25° C. - 12% DBM, 6 days): 38 | Average (n = 3) ([2]; 32° C. - 12% DBM, 0 days): 199.67 | Average (n = 3) ([2]; 32° C. - 12% DBM, 1 day): 175 | Average (n = 3) ([2]; 32° C. - 12% DBM, 2 days): 130 | Average (n = 3) ([2]; 32° C. - 12% DBM, 3 days): 100.33 | Average (n = 3) ([2]; 32° C. - 12% DBM, 4 days): 90.67 | Average (n = 3) ([2]; 32° C. - 12% DBM, 5 days): 77 | Average (n = 3) ([2]; 32° C. - 12% DBM, 6 days): 58 | LOG10 (CFU/g) ([2]; 5° C. - 12% DBM, 0 days): 3.65 LOG10 (CFU/g) | LOG10 (CFU/g) ([2]; 5° C. - 12% DBM, 1 day): 3.56 LOG10 (CFU/g) | LOG10 (CFU/g) ([2]; 5° C. - 12% DBM, 2 days): 3.47 LOG10 (CFU/g) | LOG10 (CFU/g) ([2]; 5° C. - 12% DBM, 3 days): 3.30 LOG10 (CFU/g) | LOG10 (CFU/g) ([2]; 5° C. - 12% DBM, 4 days): 3.13 LOG10 (CFU/g) | LOG10 (CFU/g) ([2]; 5° C. - 12% DBM, 5 days): 3.10 LOG10 (CFU/g) | LOG10 (CFU/g) ([2]; 5° C. - 12% DBM, 6 days): 2.93 LOG10 (CFU/g) | LOG10 (CFU/g) ([2]; 25° C. - 12% DBM, 0 days): 3.65 LOG10 (CFU/g) | LOG10 (CFU/g) ([2]; 25° C. - 12% DBM, 1 day): 3.51 LOG10 (CFU/g) | LOG10 (CFU/g) ([2]; 25° C. - 12% DBM, 2 days): 3.39 LOG10 (CFU/g) | LOG10 (CFU/g) ([2]; 25° C. - 12% DBM, 3 days): 3.30 LOG10 (CFU/g) | LOG10 (CFU/g) ([2]; 25° C. - 12% DBM, 4 days): 3.13 LOG10 (CFU/g) | LOG10 (CFU/g) ([2]; 25° C. - 12% DBM, 5 days): 3.10 LOG10 (CFU/g) | LOG10 (CFU/g) ([2]; 25° C. - 12% DBM, 6 days): 2.93 LOG10 (CFU/g) | LOG10 (CFU/g) ([2]; 32° C. - 12% DBM, 0 days): 3.65 LOG10 (CFU/g) | LOG10 (CFU/g) ([2]; 32° C. - 12% DBM, 1 day): 3.59 LOG10 (CFU/g) | LOG10 (CFU/g) ([2]; 32° C. - 12% DBM, 2 days): 3.46 LOG10 (CFU/g) | LOG10 (CFU/g) ([2]; 32° C. - 12% DBM, 3 days): 3.35 LOG10 (CFU/g) | LOG10 (CFU/g) ([2]; 32° C. - 12% DBM, 4 days): 3.30 LOG10 (CFU/g) | LOG10 (CFU/g) ([2]; 32° C. - 12% DBM, 5 days): 3.23 LOG10 (CFU/g) | LOG10 (CFU/g) ([2]; 32° C. - 12% DBM, 6 days): 3.11 LOG10 (CFU/g) | Average (n = 3) ([3]; 0 days): 199.76 | Average (n = 3) ([3]; 1 day): 152 | Average (n = 3) ([3]; 2 days): 121.33 | Average (n = 3) ([3]; 3 days): 91.67 | Average (n = 3) ([3]; 4 days): 78 | Average (n = 3) ([3]; 5 days): 57 | Average (n = 3) ([3]; 6 days): 38 | LOG10 (CFU/g) ([3]; 0 days): 3.65 LOG10 (CFU/g) | LOG10 (CFU/g) ([3]; 1 day): 3.53 LOG10 (CFU/g) | LOG10 (CFU/g) ([3]; 2 days): 3.43 LOG10 (CFU/g) | LOG10 (CFU/g) ([3]; 3 days): 3.31 LOG10 (CFU/g) | LOG10 (CFU/g) ([3]; 4 days): 3.24 LOG10 (CFU/g) | LOG10 (CFU/g) ([3]; 5 days): 3.10 LOG10 (CFU/g) | LOG10 (CFU/g) ([3]; 6 days): 2.93 LOG10 (CFU/g)
